Where “and” joins values, the source holds several entries; their conditions need not be identical. Equal values may be shown once. Read-outs that look alike come from different tables or passages of the source.
Assays:
[1] = system: spinal serotonergic pathways; test: Spinal serotonin content after lesion of descending serotonergic pathways; type: in vivo; details: 5,7-DHT 100 µg/rat intrathecal, 7 days; control 529±34
rats [2] = test: Paw pressure test, rat
Protocol: The behavioural tests were performed in a quiet room and evaluated by a single investigator in a blinded manner. Treatments and/or genotypes were randomized in blocks and the number of animals in each block corresponded to the number of treatments and/or genotypes compared. […] Each animal was exposed to only one treatment.
The rats were submitted to the paw pressure test, using an Ugo Basile analgesy meter with a probe tip diameter of 1 mm (Bioseb, France). Nociceptive thresholds, expressed in grams (g), were measured by applying an increasing pressure to the right hind paw until a squeak (vocalization thresholds) was obtained (cut-off 750 g). Two consecutive stable vocalisation threshold values were first obtained (baseline).
Intrathecal injections were performed on anaesthetised rats held in one hand by the pelvic girdle. A 25 gauge 1 inch needle connected to a 25 µl Hamilton syringe was then inserted into the subarachnoidal space between lumbar vertebrae L5 and L6 until a tail flick was elicited. The syringe was held in position for few seconds after the injection of a volume of 10 µl [49]. All injections were performed under isoflurane anaesthesia (4% induction, 2% maintenance).

rats [3] = test: Formalin test, rat; type: in vivo
Protocol: (§1) The animals received an intraplantar injection of a 2.5% formalin solution (50 µl rat, 25 µl mouse) into a hind paw. The time spent biting and licking of the injected paw was monitored during the two typical phases of the nociceptive response (phase I: 0–5 min; phase II: 20–40 min in rats or 15–40 min in mice).

TRPV1 = molecular target: T1, TRPV1 (Rattus norvegicus, UniProt O35433); test: TRPV1 activation assessed as nerve-mediated vasorelaxation in rat isolated mesenteric arteries; type: cell-based; details: for times more potent than HPODA as TRPV1 activator / times more potent than AM404 as TRPV1 activator: vasorelaxation readout
T1 construct: rat mesenteric arterial segments precontracted with phenylephrine; from tissue; host or cells: rat isolated mesenteric arterial segments (Sprague-Dawley rats)
Protocol: TRPV1 activation was assessed indirectly on rat isolated mesenteric arteries, using nerve-mediated vasorelaxation as readout. Briefly, arterial segments (2 mm long) were suspended between two stainless steel wires in temperature-controlled tissue baths (37°C), containing aerated (95% O2 and 5% CO2) physiological salt solution (composition in mM: NaCl 119, KCl 4.6, CaCl2 1.5, MgCl2 1.2, NaHCO3 15, NaH2PO4 1.2 and D-glucose 6; pH 7.4), under a passive load of 2 mN. One of the wires was connected to a force-displacement transducer model FT03 C (Grass Instruments; Rhode Island, USA) for isometric tension recording. Vasorelaxation was studied in arterial segments submaximally contracted with phenylephrine. Increasing concentrations of AM404, arvanil, olvanil and HPODA in the absence and presence of capsazepine (3 µM) were then added cumulatively to determine concentration-response relationships. All experiments were performed in the presence of indomethacin (10 µM) and N^ω-nitro-L-arginine (300 µM) to reduce cyclooxygenase and nitric oxide synthase activity, respectively.
Data are presented as the mean ± SEM, and n indicates the number of animal tested in each group. pEC50 of the lipid metabolites indicates the negative log concentration that elicited half-maximal vasorelaxation. Mann-Whitney U test or Student’s t-test was used when two groups were compared. When multiple groups were compared, Kruskal-Wallis one-way ANOVA followed by Dunn’s multiple comparisons test was used. Data from the paw pressure test were analyzed by repeated measures two-way ANOVA followed by Sidak’s or Dunnett’s multiple comparisons test. The level of statistical significance was set at p<0.05. GraphPad Prism 6.0 software (California, USA) was used in all calculations and statistical analyses.

[4] = Contents of amines and lipid metabolites in blood and brain after i.p. injection in mice (LC-MS/MS); type: in vivo, mouse
Protocol: Twenty min after drug administration, the animals were anesthetized by CO2 (rats) or isoflurane (mice) inhalation and decapitated. The brain was removed from the skull and blood was collected in test tubes, containing 60 µl buffered citrate, and the tissues snap frozen in liquid nitrogen before storage at −70°C.
(§2) The whole brain was homogenized in ice-cold 10 mM Tris buffer (ml/g tissue) at pH 7.6. The buffer solution contained 1 mM EDTA, 0.3 mM ascorbic acid and 10 µM methylarachidonylfluorophosphonate (MAFP) to prevent degradation of AM404, arvanil, olvanil, anandamide and 2-arachidonoylglycerol. Aliquots (200 µl) of blood and homogenates were precipitated with 1 ml ice-cold acetone, containing AM404-D4 (5 nM) or anandamide-D8 (100 nM) as internal standard. After centrifugation at 25,200 g for 30 min at 4°C, the supernatants were collected in polypropylene tubes and vacuum evaporated. The protein content of the pellet was determined with Coomassie protein assay (Pierce; Illinois, USA), using bovine serum albumin as standard. […] Samples were analyzed on a Waters Aquity UPLC system coupled to a Sciex 5500 tandem mass spectrometer (LC-MS/MS; AB Sciex; Massachusetts, USA) or a Perkin Elmer 200 HPLC system coupled to an API 3000 tandem mass spectrometer (LC-MS-MS; Applied Biosystems/MDS-SCIEX).
Quantification of AM404, HPODA, arvanil and olvanil. Samples were analyzed on a Waters Aquity UPLC system coupled to a Sciex 5500 tandem mass spectrometer. Sample aliquots of 5 µl were injected into an Acquity UPLC BEH C18 column (100 × 2 mm, 1.7 µm; Waters) held at 50°C. All mobile phases were water-acetonitrile gradients, containing 0.1% formic acid and using a flow rate of 400 µl/min. The acetonitrile content was initially 30%, then increased linearly to 100% over 7 min and kept at this level for 4 min, followed by an equilibration period at 30% for 2 min. The electrospray interface was operating in the positive ion mode at 550°C and the ion spray voltage was set to 5000 volts. The mass transitions (m/z) used were the following: 396.2/110.1 for AM404, 374.2/110.0 for HPODA, 400.2/114.0 for AM404-D4, 440.3/137.1 for arvanil and 418.3/137.1 for olvanil. The declustering potentials were between 96 and 130 volts and the collision energies between 25 and 41 volts.
Quantification of 4-aminophenol and HMBA. Sample aliquots of 5 µl were injected into a Hypercarb column (50 × 2.1 mm; Thermo). All mobile phases were water-acetonitrile gradients, containing 0.1% formic acid. The acetonitrile content was initially 2%, then increased linearly to […] over 5 min and then kept at 100% for 1 min, followed by an equilibration period at 2% for 1.5 min. The electrospray ion source was set at 550°C and used in the positive ion mode with an ion spray voltage of 5000. […] HMBA loses the amino group already in the source of the MS and therefore the mass transition used was 137.0/94.0. The declustering potentials were 100 and 90 volts and the collision energies 21 and 29 volts. No internal standard was used for these analyses.
The contents of the compounds were expressed either in moles or as normalized peak areas (nPA) and related to the protein content in the samples. The nPA was obtained by dividing the peak area of the analyte with the peak area for the internal standard in the same sample. The detection limits were calculated as the concentrations corresponding to three times the standard deviation of the blanks. When levels were below detection limit, numerical values of half the detection limit were used in the calculations.

[5] = type: in vivo, rat
Protocol: […] The brain was removed from the skull and blood was collected in test tubes, containing 60 µl buffered citrate, and the tissues snap frozen in liquid nitrogen before storage at −70°C.
as §2
Quantification of AM404, HPODA, arvanil and olvanil. Samples were analyzed on a Waters Aquity UPLC system coupled to a Sciex 5500 tandem mass spectrometer. […]

[6] = system: patients with postoperative pain; set-up: method as in PMID 18843665; details: single oral dose of 1000 mg; cited from earlier work
rat orthologue of TRPV1 = system: rat orthologue of TRPV1; set-up: method as in PMID 11159715; details: 45Ca2+ uptake assay, CHO cells expressing rat TRPV1; cited from earlier work
human TRPV1 = system: human TRPV1; set-up: method as in PMID 11033355; details: HEK293 cells expressing human TRPV1, fluorometric calcium imaging; cited from earlier work
mice = test: Formalin test, mouse; type: in vivo; details: mice
Protocol: as §1

[7] = AM251 3 mg/kg i.p., 4-aminophenol 100 mg i.p.
[8] = 20 min after i.p. 4-aminophenol (30 and 100 mg/kg) or HMBA (300 mg/kg)
[9] = PMSF 10 mg/kg s.c., 4-aminophenol 100 mg/kg i.p.
[10] = 20 min after HMBA 300 mg/kg i.p., mouse
[11] = capsazepine 10 mg/kg i.p., 4-aminophenol 100 mg/kg

T1 sequence (O35433 whole entry): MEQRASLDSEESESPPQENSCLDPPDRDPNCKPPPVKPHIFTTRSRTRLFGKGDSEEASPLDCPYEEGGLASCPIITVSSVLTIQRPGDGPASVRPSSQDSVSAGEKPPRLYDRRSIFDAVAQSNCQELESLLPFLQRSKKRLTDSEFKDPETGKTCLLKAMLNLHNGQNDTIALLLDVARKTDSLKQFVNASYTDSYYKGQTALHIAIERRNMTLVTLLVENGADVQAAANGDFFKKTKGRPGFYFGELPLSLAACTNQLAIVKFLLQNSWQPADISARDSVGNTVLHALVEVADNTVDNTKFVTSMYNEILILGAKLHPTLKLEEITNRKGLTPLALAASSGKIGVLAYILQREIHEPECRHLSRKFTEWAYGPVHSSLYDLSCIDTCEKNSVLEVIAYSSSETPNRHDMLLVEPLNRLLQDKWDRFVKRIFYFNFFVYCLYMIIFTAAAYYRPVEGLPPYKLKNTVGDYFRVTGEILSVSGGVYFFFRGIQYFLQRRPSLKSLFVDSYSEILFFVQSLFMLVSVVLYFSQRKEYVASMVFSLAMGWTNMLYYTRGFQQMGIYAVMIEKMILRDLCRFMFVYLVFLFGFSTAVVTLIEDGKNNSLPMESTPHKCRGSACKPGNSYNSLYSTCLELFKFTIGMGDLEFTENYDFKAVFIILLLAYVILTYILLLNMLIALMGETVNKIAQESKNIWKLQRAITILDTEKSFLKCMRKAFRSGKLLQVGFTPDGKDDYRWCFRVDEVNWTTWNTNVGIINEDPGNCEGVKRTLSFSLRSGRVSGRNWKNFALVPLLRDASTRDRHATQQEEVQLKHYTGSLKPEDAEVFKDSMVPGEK

In the case of `NCCc1c[nH]c2c(O)cc(O)cc12` [5,7-DHT, 5,7-dihydroxytryptamine], the spinal serotonin content [1] is reported as 359±38 ng/g tissue wet weight and the “effect on antinociceptive effect of 4-aminophenol, rat paw pressure test” value (“effect … rat paw pressure test” below) (rats [2]; 5,7-DHT 100 µg/rat intrathecal, 7 days before test, 4-aminophenol 100 mg/kg i.p.) is reported as “inhibited the antinociceptive effect”.
With `Cc1c(C(=O)NN2CCCCC2)nn(-c2ccc(Cl)cc2Cl)c1-c1ccc(I)cc1` [AM251, N-(piperidin-1-yl)-5-(4-iodophenyl)-1-(2,4-dichlorophenyl)-4-methyl-1H-pyrazole-3-carboxamide] the “effect on antinociceptive effect of 4-aminophenol, rat formalin test” value (“effect … rat formalin test” below) (rats [3]; [7]) was “prevented the antinociceptive effect” and the “effect … rat paw pressure test” value (rats [2]; [7]) was “prevented the antinociceptive effect”.
For `CCCCC/C=C\C/C=C\C/C=C\C/C=C\CCCC(=O)Nc1ccc(O)cc1` [AM404, N-(4-Hydroxyphenyl)-5Z,8Z,11Z,14Z-eicosatetraenamide], the EC50 (TRPV1) was 31.6 nM, the “times more potent than HPODA as TRPV1 activator” value (shortened to “times more potent than HPODA”) (TRPV1) was 3.3 times and the “Brain AM404” value ([4]; 20 min after 4-AP 30 mg/kg i.p., mouse) was 411 pmol/g and 411 ± 134 pmol/g. For the same molecule, the “Brain AM404” value ([4]; 20 min after 4-AP 100 mg/kg i.p., mouse) was 4829 ± 1435 pmol/g, the “brain content in FAAH−/− mice compared to FAAH+/+ littermates” value [4, 8] was “substantially reduced” and the “quotient between the brain contents of lipid metabolite and its parent amine” value ([4]; mouse, in vivo) was 1∶1,500. For the same molecule, the “content of AM404 in rat brain at different time points” value ([5]; 4-aminophenol 100 mg/kg i.p., 15 min and 30 min) was “Significant amounts”.
In the case of `CCCCCCCC/C=C\CCCCCCCC(=O)Nc1ccc(O)cc1` [HPODA, N-(4-hydroxyphenyl)-9Z-octadecenamide], the EC50 (TRPV1; capsazepine-sensitive vasorelaxation, rat mesenteric arterial segments precontracted with phenylephrine, read-out: pEC50 (negative log concentration eliciting half-maximal vasorelaxation) (converted)) is reported as 100 nM, the “brain content in FAAH−/− mice compared to wild-type littermates” value ([4]; mouse, in vivo) is reported as “no significant difference” and the “increase of brain content in FAAH−/− mice compared to wild-type littermates” value ([4]; mouse, in vivo, 20 min) is reported as 3 fold.
With `O=S(=O)(F)Cc1ccccc1` [PMSF, phenylmethylsulfonyl fluoride] the “effect … rat formalin test” value (rats [3]; [9]) was “inhibited the antinociceptive effect”, the “effect … rat paw pressure test” value (rats [2]; [9]) was “inhibited the antinociceptive effect” and the “effect on formation of AM404 in rat brain” value ([5]; PMSF 10 mg/kg s.c. pretreatment, 20 min after 4-aminophenol 100 mg/kg i.p.) was “substantially reduced the formation of AM404”.
In the case of `CC(=O)Nc1ccc(O)cc1` [Paracetamol], the “NNT (numbers needed to treat) for at least 50% pain reduction over 4–6 hours” value [6] is given as 3.6.
In the case of `COc1ccccc1N1CCN(CCN(C(=O)C2CCCCC2)c2ccccn2)CC1.O=C(O)/C=C\C(=O)O` [WAY-100635, N-[2-[4-(2-methoxyphenyl)-1-piperazinyl]ethyl]-N-2-pyridinylcyclohexane-carboxamide maleate], the “effect … rat formalin test” value (rats [3]; WAY-100635 40 µg/rat intrathecal 5 min before 4-aminophenol 100 mg/kg i.p.) is reported as “prevented”.
With `CCCCC/C=C\C/C=C\C/C=C\C/C=C\CCCC(=O)NCc1ccc(O)c(OC)c1` [arvanil, N-(4-hydroxy-3-methoxybenzyl)-5Z,8Z,11Z,14Z-eicosatetraenamide] the EC50 (TRPV1) was 0.2 nM, the “times more potent than AM404 as TRPV1 activator” value (TRPV1) was > 100 times and 172 times and the “times more potent than HPODA” value (TRPV1) was greater than 300 times. The “times more potent than AM404” value (rat orthologue of TRPV1) was 933 times, the “Brain Arvanil” value ([4]; 20 min after HMBA 100 mg/kg i.p., mouse) was 3.33 pmol/g and the “Brain Arvanil” value ([4]; 20 min after HMBA 100 mg/kg i.p., mouse, listed as Arvanil) was 3.33 ± 0.33 pmol/g. For the same molecule, the “Brain Arvanil” value [4, 10] was 56 ± 10 pmol/g, the “brain content in FAAH−/− mice compared to FAAH+/+ littermates” value [4, 8] was “substantially reduced” and the concentration at 20 min ([4]; in vivo, HMBA 100 mg/kg, mouse, read-out: brain content of arvanil) was 3.33 pM. For the same molecule, the “times more potent than AM404” value (human TRPV1) was “approximately 50 times”.
In the case of `Oc1cc2c(cc1O)CN(C(=S)NCCc1ccc(Cl)cc1)CCC2` [capsazepine, N-[2-(4-Chlorophenyl)ethyl]-1,3,4,5-tetrahydro-7,8-dihydroxy-2H-2-benzazepine-2-carbothioamide], the “effect on antinociceptive effect of 4-aminophenol in formalin test” value (mice; capsazepine 100 nmol into lateral ventricle 5 min prior to 4-aminophenol 30 mg/kg i.p.) is reported as “eliminated the antinociceptive effects”, the “effect on antinociceptive effect of HMBA in formalin test” value (mice; capsazepine 100 nmol into lateral ventricle 5 min prior to HMBA 100 mg/kg i.p.) is reported as “eliminated the antinociceptive effects” and the “effect … rat formalin test” value (rats [3]; [11]) is reported as “prevented the antinociceptive effect”. The “effect on vasorelaxation evoked by arvanil, olvanil and HPODA” value (TRPV1; capsazepine 3 µM) was “significantly suppressed the vasorelaxation” and the “effect … rat paw pressure test” value (rats [2]; [11]) was “prevented the antinociceptive effect”.
In the case of `Cc1c(N(C)CS(=O)(=O)[O-])c(=O)n(-c2ccccc2)n1C.[Na+]` [dipyrone], the “antinociception in formalin test” value (mice; dipyrone 50 mg/kg i.p.) is reported as “effective antinociceptive agent”.
In the case of `CCCCCCCC/C=C\CCCCCCCC(=O)NCc1ccc(O)c(OC)c1` [olvanil, N-(4-hydroxy-3-methoxybenyl)-9Z-octadecenamide], the EC50 (TRPV1) is reported as 0.316 nM, the “times more potent than AM404 as TRPV1 activator” value (TRPV1) is reported as > 100 times and 110 times and the “times more potent than HPODA” value (TRPV1) is reported as greater than 300 times. For the same molecule, the “Brain Olvanil” value [4, 10] was 45 ± 5.6 pmol/g, the “brain content in FAAH−/− mice compared to FAAH+/+ littermates” value ([4]; mouse, in vivo) was “substantially reduced” and the “times more potent than AM404” value (human TRPV1) was “approximately 50 times”.
For `CN1[C@@H]2CC[C@H]1C[C@@H](OC(=O)c1c[nH]c3ccccc13)C2` [tropisetron, Tropisetron], the “effect … rat paw pressure test” value (rats [2]; tropisetron 500 ng/rat intrathecal 5 min before 4-aminophenol 100 mg/kg i.p.) was “prevented”.

— article PMC3734263, “Fatty Acid Amide Hydrolase-Dependent Generation of Antinociceptive Drug Metabolites Acting on TRPV1 in the Brain” (PLoS ONE, 2013)
